Experimental data as given in US20170367330A1, “Method for stimulating induced insect resistance of rice” (ZHENJIANG UNIVERSITY, priority 2015, published 2017).

Assays:
Assay type in all cases: in vivo
[1] = tested on: nymphs of the brown planthopper; experiment: Root absorption treatment of rice, survival of brown planthopper nymphs; conditions: for survival rate of the brown planthopper: 8th day
Procedure: (§1) According to the first preferred embodiment of the present invention, the applied p-Fluorophenoxyacetic acids have concentrations of 1 mg/L and 10 mg/L. The rice is cultivated through the nutrient solution, and planted by each individual rice plant; the p-Fluorophenoxyacetic acid is added into the nutrient solution until a final concentration is 1 mg/L or 10 mg/L; and the nutrient solution without adding the p-Fluorophenoxyacetic acid is adopted as a control group. After treating with the p-Fluorophenoxyacetic acid for 12 hours, a special glass cover (with a diameter of 4 cm, a height of 8 cm, and 48 holes having a diameter of 0.8 mm uniformly provided on a wall) is placed on a stem of each individual rice plant, and 15 newly-hatched nymphs of the brown planthopper or the white-backed planthopper are introduced into each glass cover, wherein a top part of each glass cover is sealed by a circular sponge. The experiment is conducted in a phytotron with a temperature of 28±2° C., a humidity of 70-80% and 14 hours of illumination, survival numbers of the nymphs of the brown planthopper or the white-backed planthopper on each plant are recorded daily, and the experiment is repeated for 10 times.

[2] = tested on: nymphs of the white-backed planthopper; experiment: Root absorption treatment of rice, survival of white-backed planthopper nymphs
Procedure: as §1

[3] = tested on: nymphs of the brown planthopper; experiment: Spray treatment of rice stems and leaves, survival of brown planthopper nymphs; conditions: for survival rate of the brown planthopper: 8th day
Procedure: (§2) According to the second preferred embodiment of the present invention, the applied p-Fluorophenoxyacetic acids have concentrations of 20 mg/L and 100 mg/L. The rice is cultivated through the nutrient solution, and planted by each individual rice plant; the p-Fluorophenoxyacetic acid is prepared with water to have a certain concentration (20 mg/L or 100 mg/L), and thereafter stems and leaves of the rice are treated with spraying through a small sprayer; and tap water is adopted as a control group. After drops on the stems and leaves of the rice are totally dry, a special glass cover (with a diameter of 4 cm, a height of 8 cm, and 48 holes having a diameter of 0.8 mm uniformly provided on a wall) is placed on a stem of each individual rice plant, and 15 newly-hatched nymphs of the brown planthopper or the white-backed planthopper are introduced into each glass cover, wherein a top part of each glass cover is sealed by a circular sponge. The experiment is conducted in a phytotron with a temperature of 28±2° C., a humidity of 70-80% and 14 hours of illumination, survival numbers of the nymphs of the brown planthopper and the white-backed planthopper on each plant are recorded daily, and the experiment is repeated for 10 times.

[4] = tested on: nymphs of the white-backed planthopper; experiment: Spray treatment of rice stems and leaves, survival of white-backed planthopper nymphs
Procedure: as §2

[5] = tested on: nymphs of the white-backed planthopper; experiment: Stomach toxicity in planthopper artificial diet; conditions: for survival rate of the nymphs of the white-backed planthopper: artificial diet
Source text: In order to exclude possible influences of the p-Fluorophenoxyacetic acid itself on a survival rate of nymphs of the rice planthoppers, the third preferred embodiment of the present invention measures stomach toxicity and contact toxicity of the p-Fluorophenoxyacetic acids having different concentrations on the nymphs of the rice planthoppers. In the experiment for measuring the stomach toxicity of the p-Fluorophenoxyacetic acid on the nymphs of the rice planthoppers, the p-Fluorophenoxyacetic acids, having concentrations of 5 mg/L, 20 mg/L and 50 mg/L, are respectively added into planthopper artificial diets, and another planthopper artificial diet not containing the p-Fluorophenoxyacetic acid is adopted as control. The planthopper artificial diets containing the p-Fluorophenoxyacetic acids of different concentrations are respectively wrapped by a Parafilm sealing film and then placed at two ends (20 μL at one end) of a glass two-way tube having a diameter of 4 cm and a height of 8 cm, and 15 newly-hatched nymphs of the white-backed planthopper are introduced into each tube; wherein the glass two-way tube, in which the planthopper artificial diet not containing the p-Fluorophenoxyacetic acid is placed, is adopted as a control group. All the glass two-way tubes are placed in a phytotron (with a temperature of 28° C. and 12 hours of illumination), the artificial diet in each tube is changed once a day, and the survival number of the nymphs of the white-backed planthopper in each tube is recoded daily. The experiment is repeated for 10 times.

[6] = tested on: Third-instar nymphs of the white-backed planthopper; experiment: Contact toxicity, spotting on third-instar nymphs; conditions: for survival rates of the nymphs of the planthoppers: spotted 1 μL
Procedure: In the experiment for measuring the contact toxicity of the p-Fluorophenoxyacetic acid on the nymphs of the rice planthoppers, the p-Fluorophenoxyacetic acids respectively having concentrations of 5 mg/L, 20 mg/L, and 50 mg/L are adopted, and distilled water not containing the p-Fluorophenoxyacetic acid is adopted as a control group. Third-instar nymphs of the white-backed planthopper, being narcotized by carbon dioxide, are spotted with the p-Fluorophenoxyacetic acid having the corresponding concentration or the distilled water (1 μL for each planthopper); after waking up, the planthoppers are fed on rice plants having an age of 30 days, wherein 15 planthoppers are fed on each rice plant; and the rice is placed in a phytotron with a temperature of 28±2° C., a humidity of 70-80% and 14 hours of illumination. The experiment is repeated for 10 times. Survival numbers of the nymphs of the planthoppers are observed and recorded respectively 24 hours and 48 hours after treatment.

[7] = tested on: contents of 4-hydroxybenzoic acid and γ-aminobutyric acid in the rice; experiment: Induced mechanism: contents of defense compounds in rice after root treatment; conditions: 5 mg/L in nutrient solution, 72 hours after treating
Procedure: According to the fourth preferred embodiment of the present invention, the applied p-Fluorophenoxyacetic acid has a concentration of 5 mg/L. The rice is cultivated through the nutrient solution, and planted by each individual rice plant; the p-Fluorophenoxyacetic acid is added into the nutrient solution of the rice until a final concentration is 5 mg/L, and another nutrient solution without adding the p-Fluorophenoxyacetic acid is adopted as a control group. The experiment is repeated for 5 times and conduced in a phytotron with a temperature of 28±2° C., a humidity of 70-80%, and 14 hours of illumination. […] The 4-hydroxybenzoic acid belongs to a phenolic acid defense compound, and the γ-aminobutyric acid belongs to a non-protein amino acid, which have direct toxicity effects on the insect pests and are able to influence a peripheral nervous system of the insects. Treating the rice with the p-Fluorophenoxyacetic acid is able to increase contents of the defense compounds, thereby generating a negative effect on the insect pests and increasing a resistance of the rice against the insect pests.

[8] = from the 2nd day after treating, FIG. 2

Q: O=C(O)COc1ccc(F)cc1 [p-Fluorophenoxyacetic acid] was tested. Which “survival rate of nymphs of the rice planthoppers, maximum decrease” value ([1]; general statement in the summary, rice planthoppers, concentration not given) did it give?
A: below 10%

Q: What about the “survival rate of the brown planthopper” value ([1]; root absorption, 1 mg/L in nutrient solution) of the same molecule?
A: 35.1%

Q: And the “survival rate of the brown planthopper” value ([1]; root absorption, 10 mg/L in nutrient solution)?
A: 1.5%

Q: What about the “survival rates of the nymphs of the brown planthopper, course” value ([1]; root absorption, from the 2nd day after treating, FIG. 1) of the same molecule?
A: decreased obviously

Q: And the “survival rate of the white-backed planthopper” value ([2]; 1 mg/L in nutrient solution, 8th day)?
A: 41.3%

Q: What about the “survival rate of white-backed planthopper nymphs” value ([2]; 10 mg/L in nutrient solution, 8th day) of the same molecule?
A: 3.1%

Q: What about the “survival rates of the nymphs of the white-backed planthopper, course” value ([2]; from the 2nd day after treating, FIG. 1) of the same molecule?
A: decreased obviously

Q: And the “survival rate of the brown planthopper” value ([3]; 20 mg/L)?
A: 60.3%

Q: And the “survival rate of the brown planthopper” value ([3]; 100 mg/L)?
A: 19.2%

Q: What about the “survival rates of the nymphs of the brown planthopper, course” value [3, 8] of the same molecule?
A: decreased obviously

Q: And the “survival rate of the white-backed planthopper” value ([4]; 20 mg/L, 8th day)?
A: 66.1%

Q: What about the “survival rate of the white-backed planthopper nymphs” value ([4]; 100 mg/L, 8th day) of the same molecule?
A: 23.2%

Q: What about the “survival rates of the nymphs of the white-backed planthopper, course” value [4, 8] of the same molecule?
A: decreased obviously

Q: What about the “survival rate of the nymphs of the white-backed planthopper” value ([5]; 5 mg/L, 2nd day) of the same molecule?
A: 85.5%

Q: And the “survival rate of the nymphs of the white-backed planthopper” value ([5]; 5 mg/L, 4th day)?
A: 58.6%

Q: What about the “survival rate of the nymphs of the white-backed planthopper” value ([5]; 20 mg/L, 2nd day) of the same molecule?
A: 87.4%

Q: And the “survival rate of the nymphs of the white-backed planthopper” value ([5]; 20 mg/L, 4th day)?
A: 54.3%

Q: And the “survival rate of the nymphs of the white-backed planthopper” value ([5]; 50 mg/L, 2nd day)?
A: 81.3%

Q: And the “survival rate of the nymphs of the white-backed planthopper” value ([5]; 50 mg/L, 4th day)?
A: 57.6%

Q: And the “stomach toxicity on the planthoppers” value ([5]; artificial diet, 5, 20 and 50 mg/L)?
A: no stomach toxicity

Q: And the “survival rates of the nymphs of the planthoppers” value ([6]; 5 mg/L, 24 hours after treating)?
A: 92.0%

Q: What about the “survival rates of the nymphs of the planthoppers” value ([6]; 5 mg/L, 48 hours after treating) of the same molecule?
A: 92.0%

Q: What about the “survival rates of the nymphs of the planthoppers” value ([6]; 20 mg/L, 24 hours after treating) of the same molecule?
A: 93.1%

Q: What about the “survival rates of the nymphs of the planthoppers” value ([6]; 20 mg/L, 48 hours after treating) of the same molecule?
A: 91.6%

Q: What about the “survival rates of the nymphs of the planthoppers” value ([6]; 50 mg/L, 24 hours after treating) of the same molecule?
A: 92.0%

Q: What about the “survival rates of the nymphs of the planthoppers” value ([6]; 50 mg/L, 48 hours after treating) of the same molecule?
A: 90.8%

Q: What about the “contact toxicity on the planthoppers” value ([6]; spotted 1 μL, 5, 20 and 50 mg/L) of the same molecule?
A: no contact toxicity

Q: And the “content of the 4-hydroxybenzoic acid of the experimental group versus the control group” value [7]?
A: 2.12 times

Q: And the “content of the γ-aminobutyric acid of the experimental group versus the control group” value [7]?
A: 2.86 times
